Experiments:
[1] = test system: M-21 melanoma cells; assay: Sulforhodamine B cytotoxicity, M-21; type: cell-based; details: Homo sapiens, M21
Description: (§1) In addition to the screening already discussed, several of the before-described compounds and chimeras were screened against several or all of a panel of ten to twenty-five cancerous cell lines as target cells and seven "normal" cell preparations. This screening utilized a sulforhodamine B cytotoxidity assay as discussed below.
(§2) IC50 values; i.e., the concentration of Compound required to kill one-half of the treated cells, were then calculated.
UCLA M-21 Institute, and originally obtained from […]

[2] = test system: Ovcar-4 ovarian carcinoma cells; assay: Sulforhodamine B cytotoxicity, Ovcar-4; type: cell-based; details: Homo sapiens
Description: as §1, §2

[3] = test system: Mel-7 breast carcinoma cells; assay: Sulforhodamine B cytotoxicity, Mel-7 (breast carcinoma); type: cell-based; details: Breast carcinoma cell
Description: as §1, §2

[4] = test system: UCLA P-3 non-small cell lung carcinoma cells; assay: Sulforhodamine B cytotoxicity, UCLA-P3; type: cell-based, human; details: Homo sapiens, UCLA P-3, non small cell lung P-3; read-out: IC50
Description: as §1, §2
UCLA P-3 Dr. D. Morton, University of California, […]

[5] = test system: H-322 lung carcinoma cells; assay: Sulforhodamine B cytotoxicity, H-322; type: cell-based; details: NCI-H322; H-322; read-out: IC50
Description: as §1, §2

[6] = test system: H-522 lung cells; assay: Sulforhodamine B cytotoxicity, H-522; type: cell-based; details: Homo sapiens, NCI-H522
Description: as §1, §2

[7] = test system: Capan-1 pancreatic carcinoma cells; assay: Sulforhodamine B cytotoxicity, Capan-1; type: cell-based; details: Homo sapiens, CAPAN-1, Capan-1; read-out: IC50
Description: as §1, §2

[8] = test system: HL-60 promyeocytic leukemia cells; assay: Sulforhodamine B cytotoxicity, HL-60; type: cell-based; details: Homo sapiens, HL-60, HL-60; read-out: IC50
Description: as §1, §2

[9] = test system: RPMI-8226 cells; assay: Sulforhodamine B cytotoxicity, RPMI-8226; type: cell-based; details: Homo sapiens
Description: as §1, §2

[10] = test system: multiple-drug resistant TCAF-DAX cell line; assay: Cytotoxicity, TCAF-DAX; type: cell-based
Description: as §1, §2

[11] = test system: TCAF cell line; assay: Cytotoxicity, TCAF; type: cell-based
Description: as §1, §2

Molecule `O=C(OCCS(=O)(=O)c1ccccc1)N1c2ccc(OCCO)cc2C23OC24CCCC3C#C/C=C\C#CC14` (centres unmarked) [Compound 153] has an IC50 [1] of 1600 nM, an IC50 [2] of 780 nM and an IC50 [3] of 780 nM. It also gave an IC50 [4] of 98 nM, an IC50 [5] of 390 nM and an IC50 [6] of 98 nM. For the same molecule, the IC50 [7] was 3.9 nM, the IC50 [8] was 0.036 nM and the IC50 [9] was 7.7 nM. The IC50 [10] was 1.7 nM and the IC50 [11] was 1.1 nM.
